Laboratory results: article PMC12203311, “Design, synthesis, in silico and in vitro evaluation of pyrrole–indole hybrids as dual tubulin and aromatase inhibitors with potent anticancer activities” (RSC Advances, 2025)

Assays:
786-0 = experiment: NCI60 five-dose screen; type: cell-based; details: Homo sapiens, 786-0, renal cancer
HCT-15 = experiment: NCI60 five-dose screen; type: cell-based; details: Homo sapiens, HCT-15, colon cancer
UACC-257 = experiment: NCI60 five-dose screen; type: cell-based; details: Homo sapiens, UACC-257, melanoma
HT29 = experiment: NCI60 five-dose screen; type: cell-based; details: Homo sapiens, HT-29, HT29, colon cancer
CAKI-1 = experiment: NCI60 five-dose screen; type: cell-based; details: Homo sapiens, CAKI-1, renal cancer
NCI-H226 = experiment: NCI60 five-dose screen; type: cell-based; details: Homo sapiens, NCI-H226, NSC lung cancer
NCI-H460 = experiment: NCI60 five-dose screen; type: cell-based; details: Homo sapiens, NCI-H460, NSC lung cancer
NCI/ADR-RES = experiment: NCI60 five-dose screen; type: cell-based, human; details: Homo sapiens, ovarian cancer
Human CYP19 (aromatase) = molecular target: T1, Human CYP19 (aromatase) (Homo sapiens, UniProt P11511); experiment: Aromatase inhibition assay (DBF fluorometric substrate); type: biochemical; details: active defined as IC50 < 12.5 µM
T1 construct: purchased GENTEST, Woburn, MA 456260; host or cells: baculovirus/insect cells
T1 sequence (P11511 1-503): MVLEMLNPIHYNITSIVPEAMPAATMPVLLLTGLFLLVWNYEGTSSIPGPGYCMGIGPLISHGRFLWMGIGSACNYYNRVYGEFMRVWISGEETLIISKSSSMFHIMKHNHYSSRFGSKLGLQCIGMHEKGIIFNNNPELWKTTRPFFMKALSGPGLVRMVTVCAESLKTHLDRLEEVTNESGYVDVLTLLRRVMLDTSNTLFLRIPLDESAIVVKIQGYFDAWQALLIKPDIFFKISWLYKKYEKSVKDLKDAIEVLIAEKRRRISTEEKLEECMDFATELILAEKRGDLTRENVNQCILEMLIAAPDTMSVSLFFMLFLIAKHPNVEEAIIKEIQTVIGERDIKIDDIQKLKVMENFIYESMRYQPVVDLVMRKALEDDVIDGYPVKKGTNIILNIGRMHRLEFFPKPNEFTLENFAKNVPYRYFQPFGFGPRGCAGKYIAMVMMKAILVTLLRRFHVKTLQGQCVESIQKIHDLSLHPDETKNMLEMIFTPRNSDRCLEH
Procedure, shortened: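 Insect-cell-expressed human CYP19 Supersomes with oxidoreductase turned over DBF for 30 min at 37 °C after a 10 min 37 °C pre-incubation with cofactor. NaOH quench; product measured by fluorescence, excitation 490 nm, emission 530 nm.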

MOLT-4 = experiment: NCI60 five-dose screen; type: cell-based; details: Homo sapiens, MOLT-4, leukemia
OVCAR-8 = experiment: NCI60 five-dose screen; type: cell-based; details: Homo sapiens, OVCAR-8, ovarian cancer
SNB-19 = experiment: NCI60 five-dose screen; type: cell-based; details: Homo sapiens, SNB-19, CNS cancer
NCI-H522 = experiment: NCI60 five-dose screen; type: cell-based; details: Homo sapiens, NCI-H522, NSC lung cancer
NCI-H322M = experiment: NCI60 five-dose screen; type: cell-based; details: Homo sapiens, NSC lung cancer
[1] = Cytotoxicity MTT assay, L929; type: cell-based, mouse; details: mouse, L929 fibroblast cells; MTT, 48 hours
Procedure, shortened: (§1)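 MTT read-out after 48 h compound exposure: 0.5 mg/mL MTT for 3 h, DMSO-solubilised formazan read at 570 nm and expressed relative to vehicle. Cells, T47D or L929 in DMEM with 10% FBS at 37 °C/5% CO2, were plated at 10 000 per well the night before.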

[2] = test system: L929 normal mouse fibroblast cell line; experiment: Cytotoxicity MTT assay, L929; type: cell-based; details: IC50 (L929)/IC50 (T47D)
Procedure, shortened: as §1

EKVX = experiment: NCI60 five-dose screen; type: cell-based; details: Homo sapiens, NSC lung cancer
BT-549 = experiment: NCI60 five-dose screen; type: cell-based; details: Homo sapiens, BT-549, breast cancer
LOX IMVI = experiment: NCI60 five-dose screen; type: cell-based; details: Homo sapiens, melanoma
M14 = experiment: NCI60 five-dose screen; type: cell-based; details: Homo sapiens, M14, melanoma
HOP-62 = experiment: NCI60 five-dose screen; type: cell-based; details: Homo sapiens, HOP-62, NSC lung cancer
HOP-92 = experiment: NCI60 five-dose screen; type: cell-based; details: Homo sapiens, HOP-92, NSC lung cancer
[3] = read-out: LC50 (the source's name)

SMILES: CCOC(=O)c1cc(/C=N/NC(=O)c2[nH]c3ccc(Br)cc3c2-c2ccccc2)c[nH]1 [Derivative 3v, Ethyl (E)-4-((2-(5-bromo-3-phenyl-1H-indole-2-carbonyl)hydrazono)methyl)-1H-pyrrole-2-carboxylate]
- GI50 (786-0): 6.01 µM
- CC50 (786-0; [3]): 53.3 µM
- GI50 (HCT-15): 3.21 µM
- CC50 (HCT-15; [3]): 35.7 µM
- GI50 (UACC-257): 11.7 µM
- CC50 (UACC-257; [3]): 77.8 µM
- GI50 (HT29): 3.33 µM
- CC50 (HT29; [3]): 35.3 µM
- GI50 (CAKI-1): 3.2 µM
- CC50 (CAKI-1; [3]): 40.2 µM
- GI50 (NCI-H226): 4.21 µM
- CC50 (NCI-H226; [3]): 46.2 µM
- GI50 (NCI-H460): 3.49 µM
- CC50 (NCI-H460; [3]): 34.3 µM
- GI50 (NCI/ADR-RES): 2.23 µM
- CC50 (NCI/ADR-RES; [3]): 21.2 µM
- IC50 (Human CYP19 (aromatase)): 2.5 ± 0.6 µM
- GI50 (MOLT-4): 3.91 µM
- CC50 (MOLT-4; [3]): > 100 µM
- GI50 (OVCAR-8): 3.65 µM
- CC50 (OVCAR-8; [3]): 38.5 µM
- GI50 (SNB-19): 4.08 µM
- CC50 (SNB-19; [3]): 43.4 µM
- GI50 (NCI-H522): 2.41 µM
- CC50 (NCI-H522; [3]): 61.2 µM
- GI50 (NCI-H322M): 4.42 µM
- CC50 (NCI-H322M; [3]): 76.1 µM
- IC50 at 48 h [1]: 90.1 ± 40.3 µM
- Selectivity index (SI) [2]: 3.62
- GI50 (EKVX): 7.14 µM
- CC50 (EKVX; [3]): 60.7 µM
- GI50 (BT-549): 13.4 µM
- CC50 (BT-549; [3]): 60.2 µM
- GI50 (LOX IMVI): 4.31 µM
- CC50 (LOX IMVI; [3]): 41.1 µM
- GI50 (M14): 3.54 µM
- CC50 (M14; [3]): 41.3 µM
- GI50 (HOP-62): 6.66 µM
- CC50 (HOP-62; [3]): 69.2 µM
- GI50 (HOP-92): 7.99 µM
- CC50 (HOP-92; [3]): > 100 µM
